Laboratory results as given in US20120087980A1, “STIMULATION OF NEUROREGENERATION BY FLAVONOID GLYCOSIDES” (priority 2010, published 2012).

Assays:
[1] = system: NG108-15 neuroblastoma-glioma hybridoma cells and the ND7/23 neural cell line; experiment: Incubation of neural cell lines with 15 flavonoids, neurite formation; format: cell-based; settings: for neurite formation: screen of 15 flavonoids, NG108-15 and ND7/23 cells
Procedure: Cell culture. The NG108-15 neuroblastoma/glioma cells and ND7/23 rat DRG/mouse neuroblastoma cells were seeded at 10^4 cells/cm^2 on laminin coated wells and stimulated for 48 hours with 40 μM isoquercitrin (Cat No 00140585, Sigma) alone or in combination with either 10 μM Rho Kinase inhibitor Y-27632 (Cat No Y0503, Sigma) or 0.25 μg/ml Rho inhibitor Exoenzyme C3 Transferase (Cat No CT04, Cytoskeleton). Later, isoquercitrin stimulated cells were incubated with 0.2 unit/ml Rho Activator Calpeptin (Cat No CN01, Cytoskeleton) or, alternatively with 0.25 μM Phospholipase C inhibitor U73122 (Cat No 662035, Calbiochem). Live Cell Imaging. During incubation, cells were observed by time-lapse live cell imaging with Cell-IQ (Chip-Man Technologies, Ltd). Quantitative analysis of neurite length/cell was performed using Cell-IQ Analyser Software. Cell imaging by Immunofluorescence. Cells were cultured for 48 hrs on a Chamber Slide™ System (Lab-Tek™) under the above described conditions. Then, the cells were fixed and permeabilized with 4% formaldehyde/0.1% Triton X100 in PBS for 20 min at 4° C. After blocking with PBS containing 20% FBS and 5% BSA for 1 h at room temperature, they were incubated with mAb anti-synaptotagmin-1 (1:200, SY Synaptic Systems) for 1 hr at room temperature. Following three washes in PBS, cells were incubated with Alexa Fluor® 488 goat anti-mouse IgG/IgM (Invitrogen) for 30 min at room temperature. Afterwards, cells were incubated with 0.13 μg/ml phalloidin in the dark for 30 min at 4° C. Finally DAPI was added and last 30 min. Samples were rinsed three times and kept in PBS. The imaging was performed using Confocal Laser Scanning Microscope (Carl Zeiss AG). Assay for RhoA activation. […] The plate was incubated with an HRP detection reagent for 15 min at 37° C. and, after addition of an HRP stop buffer, the absorbance was immediately recorded at 490 nm. […] The purity and concentration were determined using a Nanoprop ND 1000 (Nanoprop Technologies, Delaware, USA) and a Bioanalyzer 2100 (Agilent, Waldbronn, Germany). […]

[2] = system: PC 12 cells; settings: via the ERK pathway, reference [1]; cited from earlier work
[3] = system: PC3 human prostatic cancer cells, NIH 3T3 fibroblasts, and podocytes; settings: PC3, NIH 3T3 fibroblasts, references [6-8]; cited from earlier work
[4] = system: NG108 cells; experiment: Microarray gene expression analysis (whole Mouse Genome 4x44k OligoMicroarrays); format: cell-based; settings: 40 uM isoquercitrin
Procedure: Cell culture. The NG108-15 neuroblastoma/glioma cells and ND7/23 rat DRG/mouse neuroblastoma cells were seeded at 10^4 cells/cm^2 on laminin coated wells and stimulated for 48 hours with 40 μM isoquercitrin (Cat No 00140585, Sigma) alone or in combination with either 10 μM Rho Kinase inhibitor Y-27632 (Cat No Y0503, Sigma) or 0.25 μg/ml Rho inhibitor Exoenzyme C3 Transferase (Cat No CT04, Cytoskeleton). Later, isoquercitrin stimulated cells were incubated with 0.2 unit/ml Rho Activator Calpeptin (Cat No CN01, Cytoskeleton) or, alternatively with 0.25 μM Phospholipase C inhibitor U73122 (Cat No 662035, Calbiochem). Live Cell Imaging. During incubation, cells were observed by time-lapse live cell imaging with Cell-IQ (Chip-Man Technologies, Ltd). Quantitative analysis of neurite length/cell was performed using Cell-IQ Analyser Software. Cell imaging by Immunofluorescence. Cells were cultured for 48 hrs on a Chamber Slide™ System (Lab-Tek™) under the above described conditions. Then, the cells were fixed and permeabilized with 4% formaldehyde/0.1% Triton X100 in PBS for 20 min at 4° C. After blocking with PBS containing 20% FBS and 5% BSA for 1 h at room temperature, they were incubated with mAb anti-synaptotagmin-1 (1:200, SY Synaptic Systems) for 1 hr at room temperature. Following three washes in PBS, cells were incubated with Alexa Fluor® 488 goat anti-mouse IgG/IgM (Invitrogen) for 30 min at room temperature. Afterwards, cells were incubated with 0.13 μg/ml phalloidin in the dark for 30 min at 4° C. Finally DAPI was added and last 30 min. Samples were rinsed three times and kept in PBS. The imaging was performed using Confocal Laser Scanning Microscope (Carl Zeiss AG). Assay for RhoA activation. For RhoA activation assay, the procedure followed the manufacture's instruction regarding RhoA G-LISA™ Activation Assay (Cytoskeleton). Briefly, grown cells were homogenized in a lysis buffer and were centrifuged at 14,000 rpm for 2 min. The supernatants, containing equal amount of proteins (60 μg/30 μl), were transferred into a 96 well plate and equal volumes of ice-cold binding buffer were added into each well. The plate was incubated for 30 min under shaking (400 rpm) at 4° C. Then they were incubated with diluted anti-RhoA primary antibodies followed by secondary antibodies while shaking (400 rpm) at room temperature for 45 min each. The plate was incubated with an HRP detection reagent for 15 min at 37° C. and, after addition of an HRP stop buffer, the absorbance was immediately recorded at 490 nm. Microarray and RT-PCR. Total cellular RNA was isolated using the RNAeasy spin columns with the DNAse digestion step. The purity and concentration were determined using a Nanoprop ND 1000 (Nanoprop Technologies, Delaware, USA) and a Bioanalyzer 2100 (Agilent, Waldbronn, Germany). All samples had 260/280 nm ratio above 1.8 and a 28S/18S ratio within 1.5-2. RNA (600 ng) was reverse transcribed into double-stranded complementary DNA (ds-cDNA) in the presence of RNA poly-A controls, RNA Spike-In Kit, Two-Color. The ds-cDNA was in vitro transcribed in the presence of Cy3 (control) and Cy5 (flavonoid-stimulated) labelled nucleotides using a Quick Amp labelling, two-color kit (Agilent P/N 5190-0444, Waldbronn, Germany). Transcription products (1.65 μg) were blocked, fragmented and hybridized to whole Mouse Genome 4×44k OligoMicroarrays (Agilent G4122F) for 17 h at 65° C. Arrays were then washed according to the manufacturer instructions and an Agilent Microarray Scanner used to measure the fluorescent intensity emitted by the labeled target. Total RNA was also reverse transcribed using oligo-dT primer and Superscript III enzyme (Invitrogen). […]

[5] = system: RhoA; experiment: RhoA G-LISA Activation Assay; format: cell-based; settings: RhoA Activator for 40 min after 48 hr isoquercitrin incubation (control)
Procedure: FIG. 6 illustrates RhoA activation. […] RhoA activity is depressed following administration of isoquercitrin for 48 hrs.
Cell culture. The NG108-15 neuroblastoma/glioma cells and ND7/23 rat DRG/mouse neuroblastoma cells were seeded at 10^4 cells/cm^2 on laminin coated wells and stimulated for 48 hours with 40 μM isoquercitrin (Cat No 00140585, Sigma) alone or in combination with either 10 μM Rho Kinase inhibitor Y-27632 (Cat No Y0503, Sigma) or 0.25 μg/ml Rho inhibitor Exoenzyme C3 Transferase (Cat No CT04, Cytoskeleton). Later, isoquercitrin stimulated cells were incubated with 0.2 unit/ml Rho Activator Calpeptin (Cat No CN01, Cytoskeleton) or, alternatively with 0.25 μM Phospholipase C inhibitor U73122 (Cat No 662035, Calbiochem). Live Cell Imaging. During incubation, cells were observed by time-lapse live cell imaging with Cell-IQ (Chip-Man Technologies, Ltd). Quantitative analysis of neurite length/cell was performed using Cell-IQ Analyser Software. Cell imaging by Immunofluorescence. […] The plate was incubated with an HRP detection reagent for 15 min at 37° C. and, after addition of an HRP stop buffer, the absorbance was immediately recorded at 490 nm. […] The purity and concentration were determined using a Nanoprop ND 1000 (Nanoprop Technologies, Delaware, USA) and a Bioanalyzer 2100 (Agilent, Waldbronn, Germany). […]

## O=c1c(O)c(-c2ccc(O)c(O)c2)oc2cc(O)ccc12 [fisetin]
[1]
  neurite formation: significant neurites
[2]
  neurite outgrowth in PC 12 cells: induce neurite outgrowth

## C[C@@H](N)[C@H]1CC[C@H](C(=O)Nc2ccncc2)CC1 [Y-27632]
[3]
  cell morphology on ROCK inhibition: elongated morphology

## O=c1c(O[C@@H]2O[C@H](CO)[C@@H](O)[C@H](O)[C@H]2O)c(-c2ccc(O)c(O)c2)oc2cc(O)cc(O)c12 [isoquercitrin, quercetin-3-β-D-glycoside]
[4]
  Fold-change, GABA A receptor-associated protein-like 1 Gene: 2.361
  Fold-change, calcium and integrin binding 1 (calmyrin) Gene: 1.297
  Fold-change, cholinergic receptor, nicotinic, alpha polypeptide 10 Gene: 1.438
  Fold-change, cortactin binding protein 2 Gene: 1.518
  Fold-change, dopamine receptor 4 Gene: 1.248
  Fold-change, glutamate receptor, ionotropic, N-methyl D-aspartate-associated protein 1 Gene: 1.595
  Fold-change, neural proliferation, differentiation and control gene 1 Gene: 1.385
  Fold-change, neuroligin 2 Gene: 1.266
  Fold-change, neurotrophin 5 Gene: 1.325
  Fold-change, protein kinase C and casein kinase substrate in neurons 1 Gene: 1.398
  Fold-change, reticulon 3 Gene: 1.316
  Fold-change, synapsin I Gene: 1.287
  Fold-change, synapsin II Gene: 1.518
  Fold-change, synaptogyrin 1 Gene: 2.130
  Fold-change, synaptopodin 2-like Gene: 1.393
  Fold-change, synaptotagmin I Gene: 1.934
  Fold-change, synaptotagmin IV Gene: 1.825
  Fold-change, synaptotagmin XI Gene: 1.913
[1]; in comparison to the other substances tested
  persistence of neurite networks: up to 4 days of culture

## CCCC[C@@H](C=O)NC(=O)[C@H](CC(C)C)NC(=O)OCc1ccccc1 [RhoA Activator]
[5]
  RhoA activation (G-LISA) after RhoA Activator: increases RhoA activation

## O=c1c(O)c(-c2ccc(O)cc2)oc2cc(O)cc(O)c12 [kaempferol]
[1]
  neurite formation: significant neurites
